According to publication PMC6753678, “Fueling Open Innovation for Malaria Transmission-Blocking Drugs: Hundreds of Molecules Targeting Early Parasite Mosquito Stages” (Frontiers in Microbiology, 2019):
Where two headings read alike, the source gives them in different places.

Key:
HepG2 cells [1] = experiment: HepG2 cytotoxicity assay; conditions: for IC50: read-out: HepG2 cytotoxicity assay IC50, dose response confirmation
Outline: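 Here viability after a 48 h compound incubation (37°C, humidified 5% CO2) is measured by fluorescence and expressed as percent inhibition, with doxorubicin at 50 μM and DMSO as the bounding controls.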

[2] = test system: P. falciparum female gametocytes; design: method as in Miguel-Blanco et al 2017; conditions: ref Miguel-Blanco et al 2017; read-out: Pf FGAA IC50; cited from earlier work
[3] = test system: 3D7-strain P. falciparum asexual parasites; experiment: P. falciparum asexual growth inhibition assay (Pf GIA); assay type: cell-based, Plasmodium falciparum; conditions: dose response confirmation; read-out: Pf asexual growth inhibition assays IC50
Outline: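 3D7 parasites at 0.25% parasitemia, 2% hematocrit were exposed to compounds in dose response for 72 h at 37°C under 5% CO2, 5% O2. Viability read as parasite LDH activity (nitro blue tetrazolium, A650) after freeze-thaw; inhibition scaled to chloroquine (50 μM) and DMSO controls, mean of three biological replicates.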

[4] = test system: P. berghei ookinete development; conditions: for Is compound selective in assay? Pb ODA active?: 1: YES, 0: NO; for % inhibition, Replicate A / % inhibition, Replicate B: primary screen at 1 μM
HepG2 cells [5] = conditions: HepG2; ref Miguel-Blanco et al 2017; cited from earlier work
[6] = test system: P. falciparum female gametocytes; experiment: P. falciparum female gametogenesis assay (Pf FGAA); conditions: 1: YES; 0: NO; >10-fold selectivity over cytotox
[7] = HepG2 values of the three screens unified
[8] = read-out: Pb ODA IC50, this manuscript
[9] = read-out: Pb Ookinete development assay IC50, dose response confirmation
[10] = unified HepG2 cytotoxicity across the three screens
[11] = unified HepG2 value across the three screens

Cc1[nH]c(C)c(-c2ccc(CCc3ccc(F)cc3F)cc2)c(=O)c1Cl [TCMDC-135462]
Unified cytotox (HepG2 cells [1]; [7]): 100.00 µM | IC50 (HepG2 cells [1]): 100000 nM | IC50 [2]: 13300 nM | IC50 [3]: 2.53 nM | Is compound selective in assay? Pb ODA active? [4]: 1 (1: YES) | % inhibition, Replicate A [4]: 91.00% | % inhibition, Replicate B [4]: 103.90% | IC50 [4, 8]: 10 nM | IC50 [4, 9]: 11 nM | HepG2 cytoxicity (Pf FGAA screen) (HepG2 cells [5]): >100 µM

Clc1ccc(Nc2nc(NCc3ccccc3)nc(N/N=C/c3ccccn3)n2)cc1 [TCMDC-138557]
Unified cytotox (HepG2 cells [1]; [10]): 13.96 µM | IC50 [2]: 260 nM | Is compound selective in assay? Pf FGAA active? [6]: 1 (1: YES)

Cl.O=C(NCCCCN1CCC(c2ccc3c(c2O)CCCC3)CC1)c1ccc(NC(=O)c2ccc(Cl)cc2)cc1 [TCMDC-138645]
Unified cytotox (HepG2 cells [1]; [10]): 3.80 µM | IC50 [2]: 1490 nM | Is compound selective in assay? Pf FGAA active? [6]: 0 (0: NO)

CC(C)(C)c1ccc(CNCCOc2ccc(Nc3nnc(-c4ccc(-c5ncc[nH]5)cc4)o3)c3ccccc23)cc1.O=C(O)C(F)(F)F [TCMDC-138667]
Unified cytotox (HepG2 cells [1]; [10]): 5.96 µM | IC50 [2]: 620 nM | Is compound selective in assay? Pf FGAA active? [6]: 0 (0: NO)

CCc1ccc(C2CCN(CCCCNC(=O)c3ccc(NC(=O)c4ccc(Cl)cc4)cc3)CC2)c(OCCO)c1 [TCMDC-138703]
Unified cytotox (HepG2 cells [1]; [10]): 5.37 µM | IC50 [2]: 2250 nM | Is compound selective in assay? Pf FGAA active? [6]: 0 (0: NO)

COc1cc2nc(N3CCC(CNC(=O)c4ccc(-c5ccc(C(F)(F)F)cc5)cc4)CC3)nc(N)c2cc1OC [TCMDC-138716]
Unified cytotox (HepG2 cells [1]; [10]): 4.92 µM | IC50 [2]: 850 nM | Is compound selective in assay? Pf FGAA active? [6]: 0 (0: NO)

COc1cc2nc(N3CCC(CNC(=O)c4ccc(-c5ccc(Cl)cc5)cc4)CC3)nc(N)c2cc1OC [TCMDC-138718]
Unified cytotox (HepG2 cells [1]; [10]): 4.22 µM | IC50 [2]: 890 nM | Is compound selective in assay? Pf FGAA active? [6]: 0 (0: NO)

COC(=O)c1ccc(-c2ccc(C(=O)NCC3CCN(c4nc(N)c5cc(OC)c(OC)cc5n4)CC3)cc2)cc1 [TCMDC-138721]
Unified cytotox (HepG2 cells [1]; [10]): 6.10 µM | IC50 [2]: 910 nM | Is compound selective in assay? Pf FGAA active? [6]: 0 (0: NO)

O=C(NCCCCN1CCC(c2ccc3c(c2OCCN2CCCC2)CCCC3)CC1)c1ccc(-c2ccc(C(F)(F)F)cc2)cc1 [TCMDC-138768]
Unified cytotox (HepG2 cells [1]; [10]): 5.39 µM | IC50 [2]: 1980 nM | Is compound selective in assay? Pf FGAA active? [6]: 0 (0: NO)

O=C(Nc1ccc(-c2ccccc2)c(OCCN2CCNCC2)c1)c1ccc(-c2ccc(Cl)cc2)cc1 [TCMDC-138818]
Unified cytotox (HepG2 cells [1]; [10]): 4.95 µM | IC50 [2]: 1380 nM | Is compound selective in assay? Pf FGAA active? [6]: 0 (0: NO)

O=C(NC1CCN(CCN2CCC(c3c[nH]c4ccccc34)CC2)CC1)c1ccc(-c2ccc(C(F)(F)F)cc2)cc1 [TCMDC-138845]
Unified cytotox (HepG2 cells [1]; [10]): 4.68 µM | IC50 [2]: 1800 nM | Is compound selective in assay? Pf FGAA active? [6]: 0 (0: NO)

CC(C)Cn1cc(C2CCN(CCN3CCC(CNC(=O)c4ccc(-c5ccc(C#N)cc5)cc4)CC3)CC2)c2ccccc21 [TCMDC-138849]
Unified cytotox (HepG2 cells [1]; [10]): 4.79 µM | IC50 [2]: 1030 nM | Is compound selective in assay? Pf FGAA active? [6]: 0 (0: NO)

CC(C)Cn1cc(C2CCN(CCN3CCC(CNC(=O)c4ccc(-c5ccc(C(F)(F)F)cc5)cc4)CC3)CC2)c2ccccc21 [TCMDC-138852]
Unified cytotox (HepG2 cells [1]; [10]): 4.80 µM | IC50 [2]: 880 nM | Is compound selective in assay? Pf FGAA active? [6]: 0 (0: NO)

O=C(NCC1CCN(CCN2CCC(c3cn(CCO)c4ccccc34)CC2)CC1)c1ccc(-c2ccc(C(F)(F)F)cc2)cc1 [TCMDC-138856]
Unified cytotox (HepG2 cells [1]; [10]): 2.69 µM | IC50 [2]: 1470 nM | Is compound selective in assay? Pf FGAA active? [6]: 0 (0: NO)

O=C(O)C(F)(F)F.O=S(=O)(c1ccccc1)n1ccc2cc(Nc3ncnc4cc(C#C[C@H]5CCCN5)sc34)ccc21 [TCMDC-138913]
Unified cytotox (HepG2 cells [1]; [10]): 5.50 µM | IC50 [2]: 1170 nM | Is compound selective in assay? Pf FGAA active? [6]: 0 (0: NO)

COc1cc2nc(-c3ccc(Br)cc3)cc(N)c2cc1OC [TCMDC-138933]
Unified cytotox (HepG2 cells [1]; [10]): 4.95 µM | IC50 [2]: 760 nM | Is compound selective in assay? Pf FGAA active? [6]: 0 (0: NO)

CCN1CCC2(c3cccc(OC)c3)Cc3nc4ccccc4c(-c4ccccc4)c3CC2C1 (stereo not drawn) [TCMDC-138968]
Unified cytotox (HepG2 cells [1]; [10]): 33.25 µM | IC50 [2]: 1430 nM | Is compound selective in assay? Pf FGAA active? [6]: 1 (1: YES)

COc1ccc(NC(=O)c2ccc(OCCCCCCCOc3ccc(C(=O)Nc4ccc(OC)c(N5CCN(C)CC5)c4)cc3)cc2)cc1N1CCN(C)CC1.O=C(O)C(=O)O [TCMDC-139007]
Unified cytotox (HepG2 cells [1]; [10]): 4.43 µM | IC50 [2]: 1410 nM | Is compound selective in assay? Pf FGAA active? [6]: 0 (0: NO)

COc1ccc(NC(=O)c2cccc(Br)c2)cc1N1CCN(CCCCCCCN2CCN(c3cc(NC(=O)c4cccc(Br)c4)ccc3OC)CC2)CC1.Cl [TCMDC-139020]
Unified cytotox (HepG2 cells [1]; [10]): 6.03 µM | IC50 [2]: 1060 nM | Is compound selective in assay? Pf FGAA active? [6]: 0 (0: NO)

Oc1ccc2[nH]cc(C3CCN(CCCNCc4ccc(-c5ccccc5)cc4)CC3)c2c1 [TCMDC-139047]
Unified cytotox (HepG2 cells [1]; [10]): 5.62 µM | IC50 [2]: 1440 nM | Is compound selective in assay? Pf FGAA active? [6]: 0 (0: NO)

CC(C)(CN)c1nc(-c2ccc(Cl)c(O)c2)c(-c2ccncc2)[nH]1.Cl [TCMDC-140369]
HepG2 cytoxicity (Pb ODA, this manuscript) (HepG2 cells [1]): 1.66 µM | Unified cytotox (HepG2 cells [1]; [7]): 1.91 µM | IC50 (HepG2 cells [1]): 1660 nM | IC50 [2]: 940 nM | IC50 [3]: 194 nM | % inhibition, Replicate A [4]: 54.47% | % inhibition, Replicate B [4]: 53.78% | IC50 [4, 8]: 510 nM | IC50 [4, 9]: 514 nM | HepG2 cytoxicity (Pf FGAA screen) (HepG2 cells [5]): 2.16 µM

Cl.O=C1CSc2ccc(CNC3CCN(CCc4c(Cl)cnc5ccc(Cl)cc45)CC3)nc2N1 [TCMDC-141959]
HepG2 cytoxicity (Pb ODA, this manuscript) (HepG2 cells [1]): 17.78 µM | Unified cytotox (HepG2 cells [1]; [7]): 17.78 µM | IC50 (HepG2 cells [1]): 17800 nM | IC50 [3]: 320 nM | Is compound selective in assay? Pb ODA active? [4]: 0 (0: NO) | % inhibition, Replicate A [4]: 64.42% | % inhibition, Replicate B [4]: 30.41% | IC50 [4, 8]: 4220 nM | IC50 [4, 9]: 4220 nM

Cl.O=C1CSc2ccc(CNC3CCN(CCc4c(Cl)cnc5ccc(F)cc45)CC3)nc2N1 [TCMDC-141960]
HepG2 cytoxicity (Pb ODA, this manuscript) (HepG2 cells [1]): 38.90 µM | Unified cytotox (HepG2 cells [1]; [7]): 38.90 µM | IC50 (HepG2 cells [1]): 38900 nM | IC50 [3]: 207 nM | Is compound selective in assay? Pb ODA active? [4]: 1 (1: YES) | % inhibition, Replicate A [4]: 68.86% | % inhibition, Replicate B [4]: 55.86% | IC50 [4, 8]: 3040 nM | IC50 [4, 9]: 3040 nM

Nc1nc(N)c2c(ccc3c2ccn3Cc2ccccc2)n1 [TCMDC-141977]
HepG2 cytoxicity (Pb ODA, this manuscript) (HepG2 cells [1]): 0.15 µM | Unified cytotox (HepG2 cells [1]; [7]): 0.15 µM | IC50 (HepG2 cells [1]): 150 nM | IC50 [3]: 1 nM | Is compound selective in assay? Pb ODA active? [4]: 0 (0: NO) | % inhibition, Replicate A [4]: 47.17% | % inhibition, Replicate B [4]: 65.82% | IC50 [4, 8]: 290 nM | IC50 [4, 9]: 286 nM

CCOc1ccc2[nH]c(C)cc(=NN=Cc3cccnc3)c2c1 [TCMDC-142047]
IC50 (HepG2 cells [1]): 15100 nM | Unified cytotox (HepG2 cells [1]; [11]): 15.14 µM | IC50 [3]: 139 nM | Is compound selective in assay? Pb ODA active? [4]: 0 (0: NO) | % inhibition, Replicate A [4]: 59.45% | % inhibition, Replicate B [4]: 48.70% | IC50 [4, 8]: 4520 nM | IC50 [4, 9]: 4520 nM

CC1=CC(=O)[C@@H](O)[C@]2(C)[C@H]3[C@@]4(O)OC[C@@]35[C@@H](C[C@@H]12)OC(=O)C[C@H]5[C@@H](C)[C@H]4O [TCMDC-142261]
IC50 (HepG2 cells [1]): 26300 nM | Unified cytotox (HepG2 cells [1]; [11]): 26.30 µM | IC50 [3]: 109 nM | Is compound selective in assay? Pb ODA active? [4]: 1 (1: YES) | % inhibition, Replicate A [4]: 102.04% | % inhibition, Replicate B [4]: 101.98% | IC50 [4, 8]: 54.9 nM | IC50 [4, 9]: 55 nM
